Patent US20070026072A1, “Benzoquinones of enhanced bioavailability” (priority 2005, published 2007)

Columns and labels:
[1] = Crystallinity of CoQ10 by modulated differential scanning calorimetry (MDSC); format: physicochemical; settings: Example 6, 20% total solids; MDSC heat-only, aluminum hermetic pans
From the text: Four spray dried powders were made containing CoQ10 and two solubility-enhancing polymers at two CoQ10:polymer ratios for each polymer.

[2] = Dissolution, USP apparatus II (paddles), media containing Cremophor EL and 4% Acconon MC8; format: physicochemical; settings: Example 6
Description: Dissolution properties were measured on the four spray dried powders of Example 1, crystalline CoQ10 and two commercial CoQ10 products (one soft gel and one dry powder capsule). All non-commercial samples were hand-filled into size 1 gelatin capsules (Shinogi Qualicaps). USP apparatus II (paddles) (VK 70100®, Varian Inc.) was used, with a bath temperature of 37° C. at 50 rpm for the first 60 minutes and then 200 rpm for an additional 15 minutes. The media contained Cremophoro EL (BASF Corp.), and 4% Acconono® MC8 (Abitec Corp.). Analysis was performed using high pressure liquid chromatography (HPLC) with UV detection (SCL-10 controller with SPD-10A detector module, Shimadzu Scientific Instruments)

[3] = dissolution method of Example 2

Q: Which results are given for COC1=C(OC)C(=O)C(C/C=C(\C)CC/C=C(\C)CC/C=C(\C)CC/C=C(\C)CC/C=C(\C)CC/C=C(\C)CC/C=C(\C)CC/C=C(\C)CC/C=C(\C)CCC=C(C)C)=C(C)C1=O [CoQ10 (as received), Coenzyme Q10]?
A: crystallinity [1]: 100%; t50% (time for 50% CoQ10 dissolution) [2, 3]: not attained; t80% (time for 80% CoQ10 dissolution) [2, 3]: not attained; max. CoQ10 release ([2]; dissolution method of Example 2, 75 minutes): 4.3%
